Several values for one entry are separate records, joined by “and”; a condition that tells them apart may be missing. Identical values can stand only once. Like-named read-outs stand apart in the source and are kept apart here.
Experiments:
[1] = test system: SARS-CoV-2 wild-type SA-WA1/2020; set-up: method as in PMID 32541865; conditions: Vero cells, read-out: half-maximal effective concentration; cited from earlier work
[2] = test system: CatL; conditions: Table S1, SI reference list; cited from earlier work
[3] = biological target: T1, CatL (Homo sapiens, UniProt P07711, T223A); test: CatL inhibition assay (Ki), substrate Z-RR-AMC; format: biochemical
T1 construct: made in house; host or cells: Komagataella pastoris strain GS115
T1 sequence (P07711 114-333 T223A): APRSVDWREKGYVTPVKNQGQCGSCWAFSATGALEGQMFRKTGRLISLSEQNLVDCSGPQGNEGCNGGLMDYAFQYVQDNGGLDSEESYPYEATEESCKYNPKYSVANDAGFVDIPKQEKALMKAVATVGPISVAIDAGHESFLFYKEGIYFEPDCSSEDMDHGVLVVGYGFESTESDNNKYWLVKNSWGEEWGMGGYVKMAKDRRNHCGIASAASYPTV
How it was run: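 Buffer: 50 mM sodium acetate pH 4.0, 50 mM NaCl, 0.1% PEG 6000, 5 mM DTT; epoxide inhibitors separately in 50 mM sodium phosphate pH 6.0 with same additives.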

[4] = biological target: SARS-CoV-2 Mpro (Severe acute respiratory syndrome coronavirus 2, UniProt P0DTD1); format: binding
[5] = test system: SARS-CoV-2-GFP in Vero E6 cells; test: microbe, parasite or virus in culture; format: cell-based
[6] = test system: Vero cells; set-up: method as in PMID 32541865; conditions: another assay using Vero cells; cited from earlier work
[7] = biological target: T1, CatL; test: NanoDSF, thermal stability of CatL; format: binding
[8] = biological target: T2, bovine serum albumin (Bos taurus, UniProt P02769); format: binding
T2 construct: purchased Merck, Germany
T2 sequence (P02769 25-607): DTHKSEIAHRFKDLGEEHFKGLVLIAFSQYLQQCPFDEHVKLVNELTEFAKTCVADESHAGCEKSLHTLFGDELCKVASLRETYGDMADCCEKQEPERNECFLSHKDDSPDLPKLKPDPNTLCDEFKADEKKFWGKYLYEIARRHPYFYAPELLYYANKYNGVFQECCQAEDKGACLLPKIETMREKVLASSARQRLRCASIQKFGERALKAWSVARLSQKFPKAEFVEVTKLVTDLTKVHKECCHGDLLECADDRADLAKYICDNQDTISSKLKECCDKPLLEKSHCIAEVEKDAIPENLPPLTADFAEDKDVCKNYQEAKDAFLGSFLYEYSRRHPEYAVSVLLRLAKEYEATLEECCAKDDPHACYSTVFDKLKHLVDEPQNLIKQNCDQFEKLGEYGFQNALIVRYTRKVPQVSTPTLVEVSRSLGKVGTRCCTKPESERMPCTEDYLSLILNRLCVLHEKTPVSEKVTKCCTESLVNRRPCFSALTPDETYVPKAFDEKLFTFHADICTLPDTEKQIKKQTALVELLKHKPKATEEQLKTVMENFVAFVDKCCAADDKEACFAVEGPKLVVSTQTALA

[9] = in DMSO; compound supply and quality parameters, supplier named in Table S4; cited from earlier work
[10] = Cell viability assay (CellTiter-Blue); conditions: chlorocebus sabaeus

## CCCC(NC(=O)C(CC(C)C)NC(=O)OCc1ccccc1)C(=O)C(=O)NCc1ccccn1 (stereo not shown) [CI-XII, Benzyl N-[1-[[1.2-dioxo-1-(pyridin-2-ylmethylamino)hexan-3-yl]amino]-4-methyl-1-oxopentan-2-yl]carbamate]
[1]
  EC50: < 1000 nM
[2]
  IC50: 1.6 nM
[3]; CI-XII 0.055 uM
  Residual activity (Vi/V0): 0.9785 and 0.9376
[3]; CI-XII 0.091 uM
  Residual activity (Vi/V0): 0.9548 and 0.9431
[3]; CI-XII 0.152 uM
  Residual activity (Vi/V0): 0.9354 and 0.8807
[3]; CI-XII 0.254 uM
  Residual activity (Vi/V0): 0.873 and 0.9321
[3]; CI-XII 0.423 uM
  Residual activity (Vi/V0): 0.8656 and 0.8369
[3]; CI-XII 0.705 uM
  Residual activity (Vi/V0): 0.7709 and 0.7656
[3]; CI-XII 1.176 uM
  Residual activity (Vi/V0): 0.6641 and 0.6442
[3]; CI-XII 1.960 uM
  Residual activity (Vi/V0): 0.5112 and 0.4696
[3]; CI-XII 3.266 uM
  Residual activity (Vi/V0): 0.3345 and 0.322
[3]; CI-XII 5.443 uM
  Residual activity (Vi/V0): 0.1956 and 0.1842
[3]; CI-XII 9.072 uM
  Residual activity (Vi/V0): 0.1094 and 0.09936
[3]; CI-XII 15.120 uM
  Residual activity (Vi/V0): 0.06322 and 0.05321
[3]; CI-XII 25.200 uM
  Residual activity (Vi/V0): 0.03696 and 0.03366
[3]; CI-XII 42.000 uM
  Residual activity (Vi/V0): 0.01939 and 0.02113
[3]; CI-XII 70.000 uM
  Residual activity (Vi/V0): 0.01108 and 0.01542
[3]; CatL Ki relative to 13b
  fold lower Ki than 13b: ~500 fold
[3]; Ki, CatL, Z-RR-AMC, pH 4.0, 37 °C
  Ki: 0.64 nM
[3]; read-out: Residual activity (Vi/V0), CI-XII 0.055 uM
  remaining activity at 0.055 µM: 101%
[3]; read-out: Residual activity (Vi/V0), CI-XII 0.091 uM
  remaining activity at 0.091 µM: 100%
[3]; read-out: Residual activity (Vi/V0), CI-XII 0.152 uM
  remaining activity at 0.152 µM: 102%
[3]; read-out: Residual activity (Vi/V0), CI-XII 0.254 uM
  remaining activity at 0.254 µM: 94.7%
[3]; read-out: Residual activity (Vi/V0), CI-XII 0.423 uM
  remaining activity at 0.423 µM: 84.5%
[3]; read-out: Residual activity (Vi/V0), CI-XII 0.705 uM
  remaining activity at 0.705 µM: 75%
[3]; read-out: Residual activity (Vi/V0), CI-XII 1.176 uM
  remaining activity at 1.176 µM: 65.7%
[3]; read-out: Residual activity (Vi/V0), CI-XII 1.960 uM
  remaining activity at 1.96 µM: 52.2%
[3]; read-out: Residual activity (Vi/V0), CI-XII 3.266 uM
  remaining activity at 3.266 µM: 34.9%
[3]; read-out: Residual activity (Vi/V0), CI-XII 5.443 uM
  remaining activity at 5.443 µM: 17.4%
[3]; read-out: Residual activity (Vi/V0), CI-XII 9.072 uM
  remaining activity at 9.072 µM: 9.65%
[3]; read-out: Residual activity (Vi/V0), CI-XII 15.120 uM
  remaining activity at 15.12 µM: 5.77%
[3]; read-out: Residual activity (Vi/V0), CI-XII 25.200 uM
  remaining activity at 25.2 µM: 3.2%
[3]; read-out: Residual activity (Vi/V0), CI-XII 42.000 uM
  remaining activity at 42 µM: 1.92%
[3]; read-out: Residual activity (Vi/V0), CI-XII 70.000 uM
  remaining activity at 70 µM: 1.07%
[4]; 2:1 compound to protein
  2:1, Tm average (Mpro): 66.7 °C
[4]; pH 7.5
  ΔTm (for Mpro), 2:1 compound to protein mixing ratio: 11,7 ± 1,7 °C and 11.7 °C
[5]; Severe acute respiratory syndrome coronavirus 2, Vero C1008, 24 h, read-out: EC50 (24 h)
  EC50: 6.4 nM
[5]; Severe acute respiratory syndrome coronavirus 2, Vero C1008, 24 h, read-out: EC50 (after 24 h)
  EC50: 6.37 nM
[5]; Severe acute respiratory syndrome coronavirus 2, Vero C1008, 48 h, read-out: EC50 (after 48 h)
  EC50: 146 nM
[5]; read-out: EC50 (24 h)
  EC50: < 10 nM
[6]
  CC50: > 50000 nM
[7]
  2:1, Tm average (CatL): 81.6 °C
  20:1, Tm average (CatL): 81.3 °C
  ΔTm [K] for CatL, 2:1 ratio: 18.5 ± 0.4 K
[7]; pH 5
  ΔTm (for CatL), 2:1 compound to protein mixing ratio: 18,5 ± 0,4 °C and 18.5 °C
  ΔTm (for CatL), 20:1 compound to protein mixing ratio: 18,2 ± 0,2 °C and 18.2 °C
[8]
  Tm of bovine serum albumin in the presence of compound: 333.4 ± 0.8 K
[9]
  Solvent (max. solubility): 16 mg/mL
[10]
  CC50 at 48 h: > 10000 nM
